The subject of test [1] is cultured cells that are involved in wound repair. The conditions noted are these: cited from earlier work.
In test [2] the test system is murine peritoneal macrophages. Put plainly: Respiratory burst (hydrogen peroxide generation), murine peritoneal macrophages. The format is cell-based. The conditions noted are these: alone and in response to PMA 10 ng/ml; 4 hours exposure. On the procedure: The respiratory burst of leukocytes (macrophages and polymorphonuclear neutrophils) is one component of the mediator system used to kill bacteria. As with phagocytosis, the level of this respiratory burst activity in resident macrophages is low. […] Studies were conducted to assess the effect of in vitro exposure of murine or rat peritoneal macrophages and human peripheral blood mononuclear cells (PBMC) to various concentrations of AII on the capacity to generate hydrogen peroxide via the respiratory burst system. For the human studies, five different donors were examined.
The murine or rat peritoneal cells were harvested by lavage with 5-15 ml of cold PBS with 0.5% bovine serum albumin. The human PBMC were harvested by venipuncture from normal human volunteers and isolated from peripheral blood by Ficoll Hypaque density centrifugation. After isolation, the cells were resuspended at 1×10^6 cells/ml and placed at 100 μl per well into 96 well plates. The cells were incubated with various concentrations of AII or AII analogues for 4 hours at 37° C. The cells were then preloaded with a fluorescent probe for hydrogen peroxide, 2,7 dichlorofluorescein acetate, which is nonfluorescent in the absence of hydrogen peroxide. […] One hour after stimulation the level of fluorescence produced was measured on a Cytofluor 2350 multiwell fluorometer.

The next test concerns rabbit corneal eye. The conditions noted are these: in vivo; cited from earlier work.
The test system of the next test is rat MSC. Put plainly: Rat mesenchymal stem cell proliferation in bone marrow culture. The format is cell-based, Sprague Dawley rats. The conditions noted are these: 1 to 100 μg/ml, in presence of serum. On the procedure:
These studies were conducted to determine the effect that AII would have on the proliferation of MSC. Bone marrow cells were harvested from the femur and tibia of female Sprague Dawley rats by flushing the bones with Dulbecco's Minimal Essential Medium-High Glucose (“DMEM-HG”) with a syringe and an 18 gauge needle. These cells were cultured in 24 well plates at 5×10^3 cells/mm^2 in DMEM-HG containing selected lots of fetal calf serum (FCS) and antibiotics (complete medium) at 37° C. incubator containing 5% CO2 in air. Twenty-four hours after the initiation of the cultures the medium and nonadherent cells were aspirated and fresh medium was added. To each of these several wells, complete medium with (1 to 100 μg/ml) or without AII was added. The migration of cells from the clones and their proliferation was followed by microscopic examination. Every 4 days the old medium was removed and fresh medium was added to the cultures. These studies were conducted to determine the effect that inclusion of AII analogues and fragments in the cell culture of MSC would have on the proliferation of these cells. Bone marrow cells were harvested from the femur and tibia of female Sprague Dawley rats by flushing the bones with Dulbecco's Minimal Essential Medium-High Glucose (“DMEM-HG”) with a syringe and an 18 gauge needle. […]

For the next test, the system named is murine HPC. Put plainly: Murine HPC colony formation in semi-solid culture with colony stimulating factors. The format is cell-based, C57B1/6 mice. The following applies: for macroscopic colonies: day 14, enriched HPC from untreated (normal) mice. On the procedure: HPC were harvested from C57B1/6 mice by immunomagnetic affinity chromatography and placed in semi-solid cultures with optimal growth medium. At various times after initiation of culture, the formation of colonies and the size of the colonies (number of cells/colony) was assessed microscopically.
Female C57B1/6 mice were purchased from Simonson and used as a source of bone marrow cells in this study. The bone marrow was harvested, either from untreated mice or from mice injected with 5-fluorouracil (5-FU) (3 mg/mouse; approximately 150 mg/kg) in the tail vein 48 hours before harvest, from the femur and tibia of mice by flushing with phosphate buffered saline (PBS), pH 7.4, containing 2% fetal bovine serum (FBS) with a 21-gauge needle. The eluant from the flushing was centrifuged and the pellet was resuspended at 4×10^7 nucleated cells/ml in PBS containing PBS containing 2% FBS and 5% normal rat serum.
The reagents for immunomagnetic labeling were purchased from Stem Cell Technologies, Inc. (Vancouver, BC). Biotin-labeled monoclonal antibodies to the following murine lineage-specific cell surface antigens were included in a cocktail for HPC enrichment and used according to the manufacturer's instructions: CD5 (Ly-1), CD45-R (B220), CD11b (Mac-1), Myeloid Differentiation Antigen (Gr-1) and Erythroid Cells (TER 119) Ten μl of antibody cocktail was added for each of the 2 sets of bone marrow (normal and 5-FU-treated), mixed and allowed to incubate at 4° C. for 15 minutes. The cells were then resuspended at 4×10^7 cells/ml in PBS containing 2% FBS. The antibody cocktail was then washed out and 100 μl anti-biotin tetramer was added for each ml of cells. The suspension was mixed and incubated at 4° C. for 15 minutes. Sixty μl of magnetic colloid was then added for each ml of cells, the combination was mixed and incubated at 4° C. for 15 minutes to yield the immunomagnetically-labeled bone marrow cells.
A column containing a stainless steel matrix was prepared by washing the matrix with PBS followed by washing with PBS containing 2% protein. […]

In the case of “Asp-Arg-Val-Tyr-Ile-His-Pro-Phe [AII, known pressor agent, commercially available]”, the mitogenesis and chemotaxis entry in test [1] was “increases mitogenesis and chemotaxis”. The “ability to generate hydrogen peroxide (respiratory burst)” value in test [2] was “increased the ability of leukocytes to generate hydrogen peroxide”. Also, in the test with rabbit corneal eye, the angiogenic activity entry is “angiogenic”. For the same substance, in the test with rat MSC, the “number of sites from which the MSC were migrating (CFU)” value is on record as “significantly increased”. In addition, in the test with rat MSC, the “size (number of cells) of the colonies formed” value is listed as “significantly increased”. Moreover, the “HPC colony size / HPC proliferation” value in the test on murine HPC (0 to 100 μg/ml, normal and 5-FU treated bone marrow) was “HPC colony size increases proportionately”. Also, the results for the macroscopic colonies with murine HPC (10 μg/ml) and with murine HPC (100 μg/ml) were 18 and 10, respectively.

Values taken from US7744927B2, “Methods of promoting hematopoietic and mesenchymal cell proliferation and differentiation” (University of Southern California, priority 1997, dated 2010).
